The values below come from PubChem BioAssay AID1996.

Values after ≈ are worked out from the molar mass of the structure shown.

The conditions of the series: buffer; pH 7.4; 200.0 µM.
Compound `CCOc1ncccc1C(=O)OCc1ccc([N+](=O)[O-])cc1` came in with a kinetic solubility of 1.3 µg/mL (≈ 4.3 µM). The same measure for `CCn1c(SCC(=O)NC2CC2)nnc1-c1ccccn1`: greater than 45.5 µg/mL; for `CN(C)/N=C/c1ccc(N2CCOCC2)cc1`: greater than 35 µg/mL. The value for `O=C(/C=C/c1ccc(F)cc1)Nc1cccc(S(=O)(=O)N2CCOCC2)c1` was 13.9 µg/mL (≈ 35.6 µM); that for `CCCN(CC(=O)Nc1ccccc1C)C(=O)c1cc(C)oc1C` was greater than 49.3 µg/mL. The value for `COC(=O)C1=C(C(=O)OC)SC(=C2C(=S)C(C)(C)N(C(=O)C(C)C)c3ccccc32)S1` was less than 1 µg/mL; that for `CC12CCC(C/C1=N/O)C2(C)CBr` (stereo not drawn) was greater than 36.9 µg/mL; that for `CC(C)n1c(CN(C)c2ccccc2)nc2ccccc21.Cl` was 42.4 µg/mL. Regarding `Cc1ccc2ccc(C)[n+](CCCS(=O)(=O)[O-])c2c1`, the solubility (kinetic) was found to be 12.4 µg/mL (≈ 44.4 µM). The same measure for `COCCN(C(=S)Nc1ccc(C)cc1)C(C)c1ccco1` (stereo not drawn): 3.4 µg/mL (≈ 10.7 µM); for `O=C(O)c1ccccc1-c1ccccc1C(=O)Nc1cccc(Br)c1`: 53.6 µg/mL (≈ 135 µM). The value for `O=C(CCc1c[nH]c2ccccc12)NCc1cccc(Cl)c1` was 40.3 µg/mL (≈ 129 µM); that for `CCCCOC(=O)c1sc2nc(C)cc(C)c2c1N` was 0.6 µg/mL (≈ 2.16 µM); that for `CCc1ccc2nc(/N=C(\N)NC(=O)c3ccccc3)nc(C)c2c1` was less than 0.1 µg/mL. Compound `CC(C)N(C(C)C)S(=O)(=O)c1ccc(Cl)nc1` came in with a solubility (kinetic) of 32.4 µg/mL (≈ 117 µM).

In turn, `CCOC(=O)N1CCN(Cc2ccc3c(c2)OCO3)CC1` gave a kinetic solubility of 41.9 µg/mL (≈ 143 µM).

For `Cc1ccc(CNc2ccc(N3CCOCC3)cc2)cc1`, the solubility (kinetic) was greater than 42.4 µg/mL. The same measure for `CCCCn1c(N)c(N(CC)C(=O)c2cccc(F)c2)c(=O)[nH]c1=O`: 52.1 µg/mL (≈ 150 µM).

`COC(=O)c1sccc1NC(=O)Nc1cc(C)cc(C)c1`: the solubility (kinetic) amounted to 2.7 µg/mL (≈ 8.87 µM). The value for `COc1ccc(-c2cc3ccccc3[nH]2)cc1` was 1.4 µg/mL (≈ 6.27 µM). The compound `COc1ccc(NC(=O)CN(C)C2CCCCC2)cc1Cl` showed a kinetic solubility of 32.7 µg/mL (≈ 105 µM). The same measure for `O=C(NC(Cc1ccccc1)C(=O)O)NC12CC3CC(CC(C3)C1)C2` (stereo not drawn): greater than 51.4 µg/mL; for `Cc1ccc(CONS(=O)(=O)c2cc(C)ccc2C)cc1`: 5.2 µg/mL (≈ 17 µM). The value for `O=C(Nc1ccc2[nH]ccc2c1)c1ccccc1` was 31.9 µg/mL (≈ 135 µM). The same measure for `COc1ccc(CCNc2cc(C)nc(N)n2)cc1OC`: greater than 43.3 µg/mL; for `CCOc1ccc(NC(=S)NCCCN2CCOCC2)cc1`: greater than 48.5 µg/mL. Consider `O=C(CCCC(=O)c1ccccc1)NCCc1ccccc1F`, for which the kinetic solubility amounted to 44.1 µg/mL (≈ 141 µM). The same measure for `CCOc1ccc2nc(SCC(=O)NCc3ccc(OC)cc3)[nH]c2c1`: 20.2 µg/mL (≈ 54.4 µM); for `O=Cc1cn(CC(=O)Nc2ccc3c(c2)OCO3)c2ccccc12`: 0.4 µg/mL (≈ 1.24 µM).

On to `NC(=O)c1ccc(NCC2CCCO2)c([N+](=O)[O-])c1` (stereo not drawn), for which the kinetic solubility was greater than 39.8 µg/mL. `COc1ccc(OC2CCN(C(=O)Nc3ccc(C)cc3)CC2)cc1` registered a solubility (kinetic) of 0.4 µg/mL (≈ 1.18 µM). The same measure for `CC(=O)c1ccc(NC(=S)NCC(c2ccco2)N2CCCC2)cc1` (stereo not drawn): 52.5 µg/mL (≈ 147 µM); for `O=C(CSc1ccccn1)Nc1ccc2[nH]c(=O)[nH]c2c1`: greater than 45.1 µg/mL. The same measure for `N#Cc1ccccc1COC(=O)CCN=C1NS(=O)(=O)c2ccccc21`: 52.4 µg/mL (≈ 142 µM). The same measure for `Cn1c(CCNC(=O)C2CCCCC2)nc2cc([N+](=O)[O-])ccc21`: 44 µg/mL (≈ 133 µM); for `CCOC(=O)C1=C(COC(=O)Cc2ccccc2)NC(=O)NC1C` (stereo not drawn): greater than 49.9 µg/mL. With `COc1cc(OC)cc(C(=O)NN2CCOCC2)c1`, the solubility (kinetic) is greater than 39.9 µg/mL. In turn, `Cn1c2ccccc2c2nnc(SCCN3CCOCC3)nc21` displayed a solubility (kinetic) greater than 49.4 µg/mL. The compound `O=C(CNCc1cccc2ccccc12)Nc1ccccc1[N+](=O)[O-]` came in with a solubility (kinetic) of 5.4 µg/mL (≈ 16.1 µM). `CC(C)NC(=O)C(=O)Nc1cc2c3c(c1)C(C)C(=O)N3CCC2` (stereo not drawn) returned a kinetic solubility of 44.6 µg/mL (≈ 141 µM). Turning to `COc1cc(SC)ccc1C(=O)Nc1ncc(C)s1`, the kinetic solubility amounted to 1.4 µg/mL (≈ 4.76 µM). The same measure for `C=CCn1c(C)nnc1SCC(=O)NC1CCCCC1`: greater than 44.2 µg/mL. As for `O=C(Nc1cccc2c1CCCC2)c1cccc(F)c1`, the kinetic solubility was less than 0.6 µg/mL. The same measure for `C/C(N)=C(/C#N)C(=O)COC(=O)c1cccc(C)c1O`: 1.5 µg/mL (≈ 5.47 µM); for `CCc1ccccc1NC(=O)NCc1ccc2c(c1)OCO2`: 0.7 µg/mL (≈ 2.35 µM). The value for `CN(Cc1cccc(F)c1)C(=O)C1CC(=O)N(c2ccc3c(c2)OCCO3)C1` (stereo not drawn) was greater than 57.7 µg/mL; that for `O=C(NC1CC1)c1cccc(S(=O)(=O)N2CCOCC2)c1` was greater than 46.6 µg/mL. The same measure for `CCCCC(CC)C(=O)Nc1cc(=O)[nH]c2nc3ccccc3n12` (stereo not drawn): 1.9 µg/mL (≈ 5.82 µM). `COC(=O)c1cn(Cc2cc(OC)ccc2OC)cc(F)c1=O` gave a kinetic solubility greater than 48.2 µg/mL. The value for `CCOc1cc(/C=C2\NC(=O)NC2=O)ccc1OC(C)C(=O)O` (stereo not drawn) was greater than 48 µg/mL; that for `Cc1ccc(OCC(O)CNC2CCCC2)cc1C.Cl` (stereo not drawn) was greater than 45 µg/mL.

Compound `CCS(=O)(=O)Nc1cc2c3c(c1)CCN3C(=O)CC2` showed a kinetic solubility greater than 42.1 µg/mL. For the compound `O=C(Cc1ccc([N+](=O)[O-])cc1)N1CCN(c2ccc([N+](=O)[O-])cc2)CC1`, the solubility (kinetic) was found to be 5.2 µg/mL (≈ 14 µM). As for `COc1ccc(CCN(C)C2CCCN(S(C)(=O)=O)C2)cc1OC` (stereo not drawn), the solubility (kinetic) was greater than 53.5 µg/mL. `Cc1cc(C)c(C)c(S(=O)(=O)NCCCn2ccnc2)c1C` had a kinetic solubility of 39.8 µg/mL (≈ 124 µM). With `O=C(CSC(=S)N1CCCC1)Nc1cc2c(cc1Br)OCCO2`, the kinetic solubility is less than 0.4 µg/mL.

`O=S(=O)(Nc1ccc(OC(F)(F)F)cc1)c1cccc2nonc12` displayed a solubility (kinetic) of 46.1 µg/mL (≈ 128 µM). Take `O=C(N/C(=C/c1ccccc1Cl)C(=O)N1CCOCC1)c1ccccc1`: the solubility (kinetic) is greater than 55.6 µg/mL. The value for `O=C(c1ccccc1NS(=O)(=O)c1ccccc1)N1CCCCCC1` was greater than 53.8 µg/mL; that for `CC(=O)C1=C(Nc2ccccc2)CC(C)(O)C(C(C)=O)C1c1ccccc1` (stereo not drawn) was 4.1 µg/mL (≈ 11.3 µM); that for `Nc1ccc(-n2cc(-c3ccccc3)[nH]c2=S)cc1` was 12.6 µg/mL (≈ 47.1 µM). The value for `Cc1cc(C(=O)c2cnc(/N=C/N(C)C)s2)c(F)cc1Cl` was 13.6 µg/mL (≈ 41.7 µM). `COC(=O)c1cc(S(=O)(=O)N2CCCC2)c(Cl)cc1Cl` had a solubility (kinetic) of 41.8 µg/mL (≈ 124 µM). Against the preceding compound, the solubility kinetic is about 3.1-fold higher.

In the case of `COc1ccc(CCNC(=S)NCCc2ccc(OC)c(OC)c2)cc1OC`, the kinetic solubility is greater than 60.7 µg/mL. The value for `C=Cn1cc[n+](CC(=O)c2cccs2)c1.[Br-]` was greater than 44.9 µg/mL; that for `COc1ccc(C(=O)C[N+]2(C)CCOCC2)cc1.[I-]` was greater than 37.5 µg/mL; that for `O=C(O)COCC(=O)N1CCCN(c2nc3ccc(Cl)cc3s2)CC1` was greater than 57.6 µg/mL. The compound `Cc1cccc(OCC(=O)NCc2cc(C)nc3ccccc23)c1` displayed a kinetic solubility of 5 µg/mL (≈ 15.6 µM). `CCCNC(=O)c1ccc(COc2ccc(C(C)(C)C)cc2)o1` registered a kinetic solubility of 10.9 µg/mL (≈ 34.6 µM).

Take `COC(=O)CSc1nc(NC(C)(C)C)nc(N(C)C)n1`: the solubility (kinetic) came out at 38.7 µg/mL (≈ 129 µM). The same measure for `Nc1nc(-c2ccc3ccccc3c2)cs1`: 11.8 µg/mL (≈ 52.1 µM); for `O=C(CSC(=S)N1CCSCC1)c1ccc(Cl)cc1`: less than 0.7 µg/mL. The value for `Cc1ccc(C(=O)NC(=S)NCC2CCCO2)cc1[N+](=O)[O-]` (stereo not drawn) was greater than 48.5 µg/mL; that for `Cn1c(O)c(C=NC2CCN(Cc3ccccc3)CC2)c(=O)[nH]c1=O` was greater than 51.4 µg/mL. The same measure for `CN(C)N1C(=O)CC(N2CCCCC2)C1=O` (stereo not drawn): greater than 33.8 µg/mL. The compound `CC(=O)Cc1nsc(NC(=O)c2ccc(F)cc2)n1` displayed a solubility (kinetic) greater than 41.9 µg/mL. Take `Oc1c(Cl)cc(Cl)cc1C=Nc1ccc(N2CCOCC2)cc1`: the kinetic solubility turned out to be 8.1 µg/mL (≈ 23.1 µM). The same measure for `CCNC(=O)C(CCSC)NS(=O)(=O)c1ccc(C)cc1` (stereo not drawn): greater than 49.6 µg/mL.

In turn, `N#CC(C#N)=Cc1ccc(N2CCOCC2)cc1` displayed a kinetic solubility of 4.4 µg/mL (≈ 18.4 µM). The same measure for `O=C(COC(=O)c1cccnc1Cl)NCc1ccc(F)cc1`: greater than 48.4 µg/mL.

For `O=C(Nc1ccccc1C(=O)NCCCN1CCOCC1)c1ccc(F)cc1`, the solubility (kinetic) was found to be 55.4 µg/mL (≈ 144 µM).

The compound `O=c1sc2ccccc2c(N2CCCC2)c1[N+](=O)[O-]` displayed a kinetic solubility greater than 41.4 µg/mL. The value for `COc1cccc(C(=O)Nc2ccccc2N2CCN(C(=O)c3ccccc3)CC2)c1` was 15 µg/mL (≈ 36.1 µM); that for `CCN1CNC(=S)N(c2cccc(C)c2)C1` was greater than 35.3 µg/mL; that for `Cc1ccc(NC(=O)CCl)c(C)c1` was greater than 29.7 µg/mL. `CC(C(=O)Nc1ccc(Cl)cc1)N(C)Cc1cccs1` (stereo not drawn): the solubility (kinetic) turned out to be 13.4 µg/mL (≈ 43.4 µM). The same measure for `CN(C)C(CNC1CC(C)(C)NC(C)(C)C1)c1cccc(F)c1` (stereo not drawn): 34.7 µg/mL (≈ 108 µM).

`CN1C(=O)/C(=C/c2cc3c(cc2Br)OCO3)NC1=S` returned a solubility (kinetic) of less than 0.4 µg/mL. The value for `CCc1ccc(Nc2ncnc3nc[nH]c23)cc1` was greater than 35.9 µg/mL; that for `CN(C)C(=O)Oc1noc2cc(Cl)ccc12` was 27.9 µg/mL (≈ 116 µM); that for `CCc1cc2c(NC3CCCC3)ncnc2s1.Cl` was 30.8 µg/mL. Turning to `CC(=O)C1=C(O)C(=O)N(c2ccccn2)C1c1ccc(Cl)cc1` (stereo not drawn), the solubility (kinetic) came out at 40.9 µg/mL (≈ 124 µM). Consider `Cc1ccc(NC(=O)c2cnc3ccccc3n2)cc1C`, for which the kinetic solubility came out at 0.3 µg/mL (≈ 1.08 µM). The same measure for `CC(NC(=O)COC(=O)Cn1cc(C(F)(F)F)ccc1=O)c1ccccc1` (stereo not drawn): greater than 57.3 µg/mL; for `CN1CCN(C(=O)/C(=C/c2ccc(F)cc2)NC(=O)c2ccccc2)CC1`: 54.5 µg/mL (≈ 148 µM). `CCOc1ccc(CCNC(=O)c2ccc(=O)[nH]c2)cc1OCC` had a kinetic solubility greater than 49.6 µg/mL. `O=C(Cn1nc(Cl)nc1Cl)c1ccccc1` showed a solubility (kinetic) greater than 38.4 µg/mL. The same measure for `COc1ccc2cc(C(C)C(=O)NC3CCC(O)CC3)ccc2c1` (stereo not drawn): 25.3 µg/mL (≈ 77.3 µM); for `NS(=O)(=O)c1ccc(NC(=O)CCC(=O)N2CCOCC2)cc1`: greater than 51.2 µg/mL; for `Cc1ccc(NC(=O)c2ccccc2NC(=O)c2cccnc2)cc1`: less than 0.2 µg/mL. `COC(=O)c1c(C)[nH]c(C(=O)OCC(=O)c2ccc(C)s2)c1C`: the solubility (kinetic) came out at 5.7 µg/mL (≈ 17 µM). The value for `Cc1cccc2sc(NC(=O)CCn3cccc3)nc12` was 5.7 µg/mL (≈ 20 µM); that for `CC(=O)NN1CCc2cc3ccc(C)cc3nc21` was greater than 36.2 µg/mL.
